As a reminder, the EC50 is the concentration needed to bring the measured effect to its halfway point. The Emax is the maximal effect, on the per cent scale that the assay sets. By Ki is commonly meant the dissociation constant of the complex between target and ligand, obtained from inhibition or displacement.

Each structure is given as a SMILES string.

Experimental findings from patent US9388162B2, “Substituted morphinans and the use thereof” (Purdue Pharma L.P., priority 2012, dated 2016) are described below.

The target of test [1] is T1, μ-opioid receptors (Homo sapiens (Human), UniProt P35372). Description: μ-opioid receptor [35S]GTPγS functional assay, HEK-293 cells. In kind it is biochemical. The following applies: μ GTP; for EC50: read-out: Activity Response μ EC50 (nM) [mean ± SEM]; for Emax: relative to DAMGO, read-out: Activity Response μ Emax (%). For orientation: Binding of GTPγS marks nucleotide exchange on a G protein.

Test [2] has as its target T1, μ-opioid receptors. The experiment in a line: μ-opioid receptor radioligand dose-displacement binding assay ([3H]-diprenorphine). The following applies: mean ± SEM, read-out: Binding Affinity Opioid Receptor Ki (nM) [mean ± SEM] μ. The protocol: Radioligand dose-displacement binding assays for μ-opioid receptors used 0.3 nM [^3H]-diprenorphine (Perkin Elmer, Shelton, Conn.), with […] membrane protein/well in a final volume of 500 μl binding buffer (10 mM MgCl2, 1 mM EDTA, 5% DMSO, 50 mM HEPES, pH 7.4). Reactions were carried out in the absence or presence of increasing concentrations of unlabeled naloxone. All reactions were conducted in 96-deep well polypropylene plates for 2 hours at room temperature. Binding reactions were terminated by rapid filtration onto 96-well Unifilter GF/C filter plates (Perkin Elmer, Shelton, Conn.), presoaked in 0.5% polyethylenimine using a 96-well tissue harvester (Perkin Elmer, Shelton, Conn.) followed by performing three filtration washes with 500 μl of ice-cold binding buffer. Filter plates were subsequently dried at 50° C. for 2-3 hours. BetaScint scintillation cocktail (Perkin Elmer, Shelton, Conn.) was added (50 μl/well), and plates were counted using a Packard Top-Count for 1 min/well. The data were analyzed using the one-site competition curve fitting functions in GraphPad PRISM™ v. 3.0 or higher (San Diego, Calif.), or an in-house function for one-site competition curve-fitting.
(§1) The following tables provide results on the efficacy of binding and activity response of exemplified Compounds of the Invention at the μ- and κ-opioid receptors. In TABLE 3, binding affinity of certain Compounds of the Invention to the μ- and κ-opioid receptors was determined as described above. In TABLE 4, activity response of certain Compounds of the Invention to the μ- and κ-opioid receptors was determined as described above for functional assays using HEK-293 cells. In TABLE 5, activity response of certain Compounds of the Invention to the μ- and κ-opioid receptors was determined as described above using U-2 OS cells.

Test [3] deals with recombinant human kappa opioid receptor (κ) (Homo sapiens (Human), UniProt P41145). Description: κ-opioid receptor radioligand dose displacement binding assay ([3H]-U69,593). The following applies: mean ± SEM, read-out: Binding Affinity Opioid Receptor Ki (nM) [mean ± SEM] κ. The protocol: (§2) Membranes from HEK-293 cells, CHO or U-2 OS cells expressing the recombinant human kappa opioid receptor (κ) were prepared by lysing cells in ice cold hypotonic buffer (2.5 mM MgCl2, 50 mM HEPES, pH 7.4) (10 mL/10 cm dish) followed by homogenization with a tissue grinder/Teflon pestle. Membranes were collected by centrifugation at 30,000×g for 15 min at 4° C. and pellets were resuspended in hypotonic buffer to a final concentration of 1-3 mg/mL. Protein concentrations were determined using the BioRad protein assay reagent with bovine serum albumen as standard. Aliquots of κ receptor membranes were stored at −80° C.
Radioligand dose displacement assays used 0.4 nM [^3H]-U69,593 (GE Healthcare, Piscataway, N.J.; 40 Ci/mmole) with 15 μg membrane protein (recombinant κ opioid receptor expressed in HEK 293 cells; in-house prep) in a final volume of 200 μl binding buffer (5% DMSO, 50 mM Trizma base, pH 7.4). Non-specific binding was determined in the presence of 10 μM unlabeled naloxone or U69,593. All reactions were performed in 96-well polypropylene plates for 1 hour at a temperature of about 25° C. Binding reactions were terminated by rapid filtration onto 96-well Unifilter GF/C filter plates (Perkin Elmer, Shelton, Conn.) presoaked in 0.5% polyethylenimine (Sigma). Harvesting was performed using a 96-well tissue harvester (Perkin Elmer, Shelton, Conn.) followed by five filtration washes with 200 μl ice-cold binding buffer. Filter plates were subsequently dried at 50° C. for 1-2 hours. Fifty μl/well scintillation cocktail (Perkin Elmer, Shelton, Conn.) was added and plates were counted in a Packard Top-Count for 1 min/well.
as §1

In test [4] the target is T2, κ opioid receptor (Homo sapiens (Human), UniProt P41145). The experiment in a line: κ-opioid receptor [35S]GTPγS functional assay, HEK-293 cells. In kind it is biochemical. The following applies: κ GTP; for EC50: read-out: Activity Response κ EC50 (nM) [mean ± SEM]; for Emax: relative to U69,593, read-out: Activity Response κ Emax (%). The protocol:
as §2
Functional [^35S]GTPγS binding assays were conducted as follows. κ opioid receptor membrane solution was prepared by sequentially adding final concentrations of 0.026 μg/μl κ membrane protein (in-house), 10 μg/mL saponin, 3 μM GDP and 0.20 nM [^35S]GTPγS to binding buffer (100 mM NaCl, 10 mM MgCl2, 20 mM HEPES, pH 7.4) on ice. The prepared membrane solution (190 μl/well) was transferred to 96-shallow well polypropylene plates containing 10 μl of 20× concentrated stock solutions of agonist prepared in DMSO. Plates were incubated for 30 min at a temperature of about 25° C. with shaking. Reactions were terminated by rapid filtration onto 96-well Unifilter GF/B filter plates (Perkin Elmer, Shelton, Conn.) using a 96-well tissue harvester (Packard) and followed by three filtration washes with 200 μl ice-cold binding buffer (10 mM NaH2PO4, 10 mM Na2HPO4, pH 7.4). Filter plates were subsequently dried at 50° C. for 2-3 hours. Fifty μl/well scintillation cocktail (Perkin Elmer, Shelton, Conn.) was added and plates were counted in a Packard Top-Count for 1 min/well.
κ GTP EC50 is the concentration of a compound providing 50% of the maximal response for the compound at a κ receptor.
κ GTP Emax (%) is the maximal effect elicited by a compound relative to the effect elicited by U69,593.
In TABLE 3, binding affinity of certain Compounds of the Invention to the μ- and κ-opioid receptors was determined as described above. In TABLE 4, activity response of certain Compounds of the Invention to the μ- and κ-opioid receptors was determined as described above for functional assays using HEK-293 cells. In TABLE 5, activity response of certain Compounds of the Invention to the μ- and κ-opioid receptors was determined as described above using U-2 OS cells.

For test [5], the target named is T1, μ-opioid receptors. The experiment in a line: μ-opioid receptor [35S]GTPγS functional assay, U-2 OS cells. It counts as biochemical. The following applies: μ GTP; for EC50: read-out: Activity Response μ EC50 (nM) [mean ± SEM]; for Emax: relative to DAMGO, read-out: Activity Response μ Emax (%).
The target of test [6] is T2, κ opioid receptor. The experiment in a line: κ-opioid receptor [35S]GTPγS functional assay, U-2 OS cells. It counts as biochemical. The following applies: κ GTP; for EC50: read-out: Activity Response κ EC50 (nM) [mean ± SEM]; for Emax: relative to U69,593, read-out: Activity Response κ Emax (%).

Take `COc1ccc2c(c1)[C@]13CCN(CC4CC4)[C@H](C2)[C@@H]1C[C@@H](C(C)C)C(=O)C3` [Compound 72, (4bS,7S,8aR,9R)-11-(cyclopropylmethyl)-7-isopropyl-3-methoxy-8,8a,9,10-tetrahydro-5H-9,4b-(epiminoethano)phenanthren-6(7H)-one]: the EC50 in test [1] turned out to be 212 ± 48.8 nM; in test [4], 1050 ± 193 nM; in test [5] it was 270 ± 48.2 nM; in test [6], 303 ± 40.4 nM. Besides, the maximal response (Emax) in test [1] turned out to be 101 ± 5.55%; in test [4] it was 69.3 ± 6.77%; in test [5] it was 60 ± 6%; in test [6], 102 ± 2.52%. Besides, the Ki in test [2] came out at 476 ± 118 nM; in test [3] it was 82.9 ± 1.96 nM.
For the molecule `CC(C)[C@@H]1C[C@H]2[C@H]3Cc4ccc(O)cc4[C@@]2(CCN3CC2CC2)CC1=O` [Compound 73, (4bS,7S,8aR,9R)-11-(cyclopropylmethyl)-3-hydroxy-7-isopropyl-8,8a,9,10-tetrahydro-5H-9,4b-(epiminoethano)phenanthren-6(7H)-one], the concentration for a half-maximal effect (EC50) was 2.85 ± 0.6 nM in test [1], 6.07 ± 1.92 nM in test [4], 0.84 ± 0.13 nM in test [5] and 1.92 ± 0.28 nM in test [6]. The maximum response (Emax) in test [1] turned out to be 53.2 ± 5.71%; in test [4], 61 ± 8.62%; in test [5] it was 28.3 ± 4.06%; in test [6], 101 ± 3.38%. The inhibition constant (Ki) was 1.98 ± 0.44 nM in test [2] and 0.32 ± 0.11 nM in test [3].
`CC(C)[C@H]1C[C@H]2[C@H]3Cc4ccc(O)cc4[C@@]2(CCN3CC2CC2)CC1=O` [Compound 74, (4bS,7R,8aR,9R)-11-(cyclopropylmethyl)-3-hydroxy-7-isopropyl-8,8a,9,10-tetrahydro-5H-9,4b-(epiminoethano)phenanthren-6(7H)-one]: the 50% effective concentration (EC50) in test [1] came to 2.31 ± 0.6 nM; in test [4], 3.52 ± 1 nM; in test [5], 3.66 ± 0.82 nM; in test [6], 1.42 ± 0.15 nM. Also, the maximum response (Emax) in test [1] was 90.3 ± 3.84%; in test [4] it was 34 ± 5.86%; in test [5], 46 ± 11%; in test [6] it was 91.3 ± 3.76%. For the same molecule, the inhibition constant Ki came out at 7.42 ± 2.25 nM in test [2] and 0.33 ± 0.041 nM in test [3].
